Data on three compounds can be found in ChEMBL document CHEMBL1153550, “In vitro study of Candida tropicalis isolates exhibiting paradoxical growth in the presence of high concentrations of caspofungin” (2007).

Type in all cases: functional
Assay [1] concerns Candida tropicalis. As to the kind of experiment: Antifungal activity against Candida tropicalis isolate 6 in RPMI 1640 medium by broth dilution susceptibility test. On the technique in general: In broth dilution the organism is exposed to a series of concentrations in liquid medium.
Assay [2] deals with Candida tropicalis. In words: Antifungal activity against Candida tropicalis isolate 13 in RPMI 1640 medium by broth dilution susceptibility test.
The subject of assay [3] is Candida tropicalis. In words: Antifungal activity against Candida tropicalis isolate 8 in RPMI 1640 medium by broth dilution susceptibility test.
Assay [4] relates to Candida tropicalis. In words: Antifungal activity against Candida tropicalis isolate 15 in RPMI 1640 medium by broth dilution susceptibility test.
Assay [5] deals with Candida tropicalis. As to the kind of experiment: Antifungal activity against Candida tropicalis isolate 5 in RPMI 1640 medium by broth dilution susceptibility test.
Assay [6] has as its system Candida tropicalis. In words: Antifungal activity against Candida tropicalis isolate 4 in RPMI 1640 medium by broth dilution susceptibility test.
Assay [7] deals with Candida tropicalis. As to the kind of experiment: Antifungal activity against Candida tropicalis isolate 7 in RPMI 1640 medium by broth dilution susceptibility test.
The subject of assay [8] is Candida tropicalis. In words: Antifungal activity against Candida tropicalis ATCC 750 in RPMI 1640 medium by broth dilution susceptibility test.

Values after ≈ are worked out from the molar mass of the structure shown.

Usually MIC stands for the lowest concentration that inhibits growth of the organism. Lower therefore signals greater potency. For `C[C@@H]1[C@H](O)[C@@H](C)/C=C/C=C/C=C/C=C/C=C/C=C/C=C/[C@H](O[C@@H]2O[C@H](C)[C@@H](O)[C@H](N)[C@@H]2O)C[C@@H]2O[C@](O)(C[C@@H](O)C[C@@H](O)[C@H](O)CC[C@@H](O)C[C@@H](O)CC(=O)O[C@H]1C)C[C@H](O)[C@H]2C(=O)O` [AMPHOTERICIN B], the MIC in the assay with Candida tropicalis [1], in the assay on Candida tropicalis [2], with Candida tropicalis [3], in the assay on Candida tropicalis [4], against Candida tropicalis [5] and against Candida tropicalis [6] was 2 µg/mL (≈ 2.16 µM) throughout. Moreover, the MIC was determined as 2 µg/mL (≈ 2.16 µM) in the assay on Candida tropicalis [7] and 1 µg/mL (≈ 1.08 µM) in the assay on Candida tropicalis [8].
`Nc1nc(=O)[nH]cc1F` [FLUCYTOSINE]: the MIC in the assay on Candida tropicalis [1], with Candida tropicalis [2], with Candida tropicalis [3], in the assay on Candida tropicalis [4], against Candida tropicalis [5] and in the assay on Candida tropicalis [6] was 0.12 µg/mL (≈ 0.93 µM) throughout. Besides, the MIC with Candida tropicalis [7] and in the assay with Candida tropicalis [8] was 0.12 µg/mL (≈ 0.93 µM) throughout.
With `OC(Cn1cncn1)(Cn1cncn1)c1ccc(F)cc1F` [FLUCONAZOLE], the MIC with Candida tropicalis [1] was 0.25 µg/mL (≈ 0.816 µM); in the assay on Candida tropicalis [2], 0.5 µg/mL (≈ 1.63 µM); against Candida tropicalis [3], 0.5 µg/mL (≈ 1.63 µM); against Candida tropicalis [4], 0.25 µg/mL (≈ 0.816 µM); in the assay on Candida tropicalis [5], 0.25 µg/mL (≈ 0.816 µM); with Candida tropicalis [6], 0.5 µg/mL (≈ 1.63 µM). For the same compound, the MIC amounted to 0.25 µg/mL (≈ 0.816 µM) against Candida tropicalis [7] and 1 µg/mL (≈ 3.27 µM) in the assay on Candida tropicalis [8].
